Test results reported in paper PMC7772935, “Plant-Derived Compounds as a Tool for the Control of Gastrointestinal Nematodes: Modulation of Abamectin Pharmacological Action by Carvone” (Frontiers in Veterinary Science, 2020).
Marks after values point to notes of the source that are not given here.

What was measured:
bovine ileal explants [1] = assay: ABM accumulation in bovine ileal explants, modulation by R-CNE or IVM; assay type: in vitro ADME, cattle; conditions: 0.05 μM ABM; for Effect on ABM accumulation in intestinal explants: 3.33 mM R-CNE or 0.5 μM IVM, 15-60 min
Source text: Cattle ileum samples were obtained from a local slaughterhouse ([…], Argentina) located 16 km away from the laboratory facilities.

P-gp = tested on: P-gp; set-up: method as in PMID 16384552; conditions: read-out: Concentration that inhibited the activated ATPase activity by 50%; cited from earlier work
sheep intestine = tested on: sheep intestine; set-up: method as in PMID 24611483; conditions: Ussing chambers; cited from earlier work
bovine ileal explants [2] = tested on: bovine ileal explants
Source text: (§1) Data are expressed as mean ± standard deviation (SD). […] Differences were considered statistically significant at p < 0.05.

[3] = R-CNE plasma concentrations after oral administration to lambs; assay type: in vivo; conditions: Corriedale and Texel crossbreed, sheep, 100 mg/kg oral, four doses every 24 h, after each dose
Description: (§2) All the animals had free access to water. Lambs were assigned to three experimental groups.
R-CNE analysis was performed according the technique described by Tao and Pereira ([23]), with modifications. Aliquots of plasma (0.25 mL) were mixed with acetonitrile, agitated and centrifuged. Supernatants were injected into the HPLC system fitted with a Kromasil C18 column. The mobile phase was water/acetonitrile (40/60) at an isocratic flow of 1.3 mL/min. R-CNE was analyzed using a UV detector (Shimadzu, SPD-10A).
as §1

[4] = tested on: Haemonchus contortus egg hatch; set-up: method as in PMID 28807309; conditions: in vitro; cited from earlier work
[5] = tested on: Haemonchus spp. eggs and larvae; set-up: method as in PMID 28807309; conditions: in vitro; cited from earlier work
[6] = Undesirable effects after oral administration in the in vivo assay; conditions: lambs, R-CNE 100 mg/kg, four oral doses every 24 h
Source text: as §2

[7] = ABM plasma disposition after oral administration to lambs; conditions: ABM 0.2 mg/kg oral, alone or with R-CNE 4 x 100 mg/kg every 24 h, mean ± SD, n = 8
Source text: as §1

P-gp transport = tested on: P-gp transport; set-up: method as in PMID 25865432; conditions: cited from earlier work
[8] = tested on: resistant gastrointestinal nematodes; assay: Fecal egg count reduction test in naturally infected lambs; assay type: in vivo
Description: as §2
The fecal samples were analyzed to obtain the epg counts. The coprocultures were prepared with 10 g of feces from a pool of each experimental group obtained on days−1 and 14. The nematode genera and species were identified through the third-stage larvae recovered from the coprocultures ([24]). The fecal egg count reduction test (FECRT) was calculated using the Abbott's formula ([25]), with modifications: […]
where T1 and T2 are the arithmetic mean epg counts in the treated group on days 0 and 14, respectively, and C1 and C2 are the arithmetic mean epg counts in the control group on days 0 and 14, respectively. The 95% confidence intervals were calculated following Coles et al. ([26]).

CC[C@H](C)[C@H]1O[C@]2(CC[C@@H]1C)C[C@@H]1C[C@@H](C/C=C(\C)[C@@H](O[C@H]3C[C@H](OC)[C@@H](O[C@H]4C[C@H](OC)[C@@H](O)[C@H](C)O4)[C@H](C)O3)[C@@H](C)/C=C/C=C3\CO[C@@H]4[C@H](O)C(C)=C[C@@H](C(=O)O1)[C@]34O)O2 [IVM, ivermectin]
Effect on ABM accumulation in intestinal explants (bovine ileal explants [1]): significantly increased the accumulation of ABM in the intestinal explants at all incubation times
IC50 (P-gp): 2.5 µM
Increase of Rho123 absorption in the presence of the inhibitor (sheep intestine): 69%

C=C(C)C1CC=C(C)C(=O)C1 (centres unmarked) [R-CNE, 5-isopropenyl-2-methyl-2-cyclohexenone]
Effect on ABM accumulation in intestinal explants (bovine ileal explants [1]): increased the intestinal concentration of the synthetic anthelmintic ABM at 15 and 30 min of incubation
Intestinal concentration of ABM, % higher than control (ABM alone) (bovine ileal explants [1]; 30 min of incubation, 3.33 mM R-CNE): 28.1 ± 35.7%
Effect on Rho123 concentrations in the intestinal explants (bovine ileal explants [2]; 3.33 mM R-CNE, 15, 30, 45, 60 min): significantly increased Rho123 concentrations in the intestinal explants at all incubation times
Rho123 concentration in intestinal explants, % higher than Rho123 incubated alone (bovine ileal explants [2]; 60 min of incubation, 3.33 mM R-CNE, 0.5 μM Rho123): 67 ± 21%
Cmax [3]: 1.79 ± 0.598 µg/mL
50% lethal concentration [4]: 85 µg/mL
Concentrations necessary to obtain an efficacy >90% [5]: 370 µg/mL
Undesirable effects after oral administration [6]: no undesirable effects were observed

COC(=O)c1ccccc1-c1c2ccc(=N)cc-2oc2cc(N)ccc12 [Rho123, Rhodamine 123]
Accumulation rate of Rho123 (bovine ileal explants [2]; male, Aberdeen Angus/Hereford crossbreed, cattle, 0.5 µM): 0.69 ± 0.19 ρg Rho/min/mg tissue

abamectin [ABM]
AUC0−168h of ABM [7]: 815.67 ± 303.1
Cmax of ABM [7]: 16.20 ± 10.2^a μg/mL
Tmax of ABM [7]: 10.75 ± 9.6^a h
T½ el (elimination half-life) of ABM [7]: 28.04 ± 8.1^a h
Concentrations necessary to inhibit P-gp transport, fold lower than to inhibit MRPs-mediated transport (P-gp transport): 3 fold
Mean epg counts Day 14 ([8]; 14 days after oral administration, mean ± SD): 45 ± 121 epg
Classification of drug efficacy according to Coles et al. ([8]; FECRT criteria): suspected of resistance
Mean epg counts Day 0 ([8]; before treatment, mean ± SD): 2,193 ± 858 epg
FECR (LCL-UCL) ([8]; day 14, 95% confidence limits): 94.9 (65.0-99.0) %
Proportion of Haemonchus spp. in coprocultures after treatment ([8]; day 14, third-stage larvae): 88%
Proportion of Teladorsagia spp. in coprocultures after treatment ([8]; day 14, third-stage larvae): 12%
